From paper PMC5540273, “Progress towards a public chemogenomic set for protein kinases and a call for contributions” (PLoS ONE, 2017)

Key:
Test in all cases: KINOMEscan competition binding
ABL1-nonphosphorylated = ABL1-nonphosphorylated (Homo sapiens, UniProt P00519); conditions: read-out: %Inh ABL1-nonphosphorylated
ASK2 = target: T1, ASK2 (Homo sapiens, UniProt O95382); conditions: read-out: %Inh ASK2
T1 sequence (O95382 1-1288): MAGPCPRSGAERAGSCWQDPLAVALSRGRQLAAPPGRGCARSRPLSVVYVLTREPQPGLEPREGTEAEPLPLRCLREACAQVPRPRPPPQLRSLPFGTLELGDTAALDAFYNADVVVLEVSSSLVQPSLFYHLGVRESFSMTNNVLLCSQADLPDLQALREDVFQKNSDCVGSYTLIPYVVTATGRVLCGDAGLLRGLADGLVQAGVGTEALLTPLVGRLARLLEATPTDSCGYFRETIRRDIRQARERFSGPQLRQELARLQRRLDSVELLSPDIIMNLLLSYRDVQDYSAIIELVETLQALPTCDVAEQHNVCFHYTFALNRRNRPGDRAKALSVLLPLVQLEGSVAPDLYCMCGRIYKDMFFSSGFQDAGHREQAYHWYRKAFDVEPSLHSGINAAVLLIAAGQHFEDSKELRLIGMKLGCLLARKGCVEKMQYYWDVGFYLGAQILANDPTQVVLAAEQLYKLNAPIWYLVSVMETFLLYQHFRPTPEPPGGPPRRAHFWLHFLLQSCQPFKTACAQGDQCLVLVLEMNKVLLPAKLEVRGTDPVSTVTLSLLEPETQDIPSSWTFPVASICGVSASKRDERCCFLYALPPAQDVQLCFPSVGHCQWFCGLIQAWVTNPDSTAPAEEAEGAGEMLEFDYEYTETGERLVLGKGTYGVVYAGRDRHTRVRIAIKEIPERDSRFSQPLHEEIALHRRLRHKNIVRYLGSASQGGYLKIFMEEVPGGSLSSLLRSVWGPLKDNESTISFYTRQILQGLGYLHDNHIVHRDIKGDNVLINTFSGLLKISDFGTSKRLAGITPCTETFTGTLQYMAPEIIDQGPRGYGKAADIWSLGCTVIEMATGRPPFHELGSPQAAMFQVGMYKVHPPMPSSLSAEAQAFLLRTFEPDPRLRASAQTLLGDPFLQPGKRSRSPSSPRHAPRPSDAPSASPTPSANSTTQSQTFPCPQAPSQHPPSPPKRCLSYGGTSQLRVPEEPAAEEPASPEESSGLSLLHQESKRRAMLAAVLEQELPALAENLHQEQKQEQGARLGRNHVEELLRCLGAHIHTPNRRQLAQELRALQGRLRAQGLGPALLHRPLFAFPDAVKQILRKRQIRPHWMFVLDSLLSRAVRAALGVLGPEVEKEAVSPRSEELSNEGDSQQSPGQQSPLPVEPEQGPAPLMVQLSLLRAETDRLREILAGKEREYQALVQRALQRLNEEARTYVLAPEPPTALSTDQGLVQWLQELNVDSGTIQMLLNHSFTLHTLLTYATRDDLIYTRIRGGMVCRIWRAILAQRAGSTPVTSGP

CAMK1 = CAMK1 (Homo sapiens, UniProt Q14012); conditions: read-out: %Inh CAMK1
CAMK1, sequence (Q14012 whole entry): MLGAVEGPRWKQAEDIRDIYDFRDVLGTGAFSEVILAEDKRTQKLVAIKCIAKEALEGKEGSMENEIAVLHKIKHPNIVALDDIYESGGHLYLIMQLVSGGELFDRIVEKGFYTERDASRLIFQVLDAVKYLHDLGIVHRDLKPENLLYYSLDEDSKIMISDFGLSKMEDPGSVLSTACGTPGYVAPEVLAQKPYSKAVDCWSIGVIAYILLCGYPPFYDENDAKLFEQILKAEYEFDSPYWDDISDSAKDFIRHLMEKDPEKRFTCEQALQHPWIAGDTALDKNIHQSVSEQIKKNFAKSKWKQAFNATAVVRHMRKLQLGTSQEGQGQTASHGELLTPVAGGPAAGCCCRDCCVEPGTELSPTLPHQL

DDR2 = target: T2, DDR2 (Homo sapiens, UniProt Q16832); conditions: read-out: %Inh DDR2
T2 sequence (Q16832 22-855): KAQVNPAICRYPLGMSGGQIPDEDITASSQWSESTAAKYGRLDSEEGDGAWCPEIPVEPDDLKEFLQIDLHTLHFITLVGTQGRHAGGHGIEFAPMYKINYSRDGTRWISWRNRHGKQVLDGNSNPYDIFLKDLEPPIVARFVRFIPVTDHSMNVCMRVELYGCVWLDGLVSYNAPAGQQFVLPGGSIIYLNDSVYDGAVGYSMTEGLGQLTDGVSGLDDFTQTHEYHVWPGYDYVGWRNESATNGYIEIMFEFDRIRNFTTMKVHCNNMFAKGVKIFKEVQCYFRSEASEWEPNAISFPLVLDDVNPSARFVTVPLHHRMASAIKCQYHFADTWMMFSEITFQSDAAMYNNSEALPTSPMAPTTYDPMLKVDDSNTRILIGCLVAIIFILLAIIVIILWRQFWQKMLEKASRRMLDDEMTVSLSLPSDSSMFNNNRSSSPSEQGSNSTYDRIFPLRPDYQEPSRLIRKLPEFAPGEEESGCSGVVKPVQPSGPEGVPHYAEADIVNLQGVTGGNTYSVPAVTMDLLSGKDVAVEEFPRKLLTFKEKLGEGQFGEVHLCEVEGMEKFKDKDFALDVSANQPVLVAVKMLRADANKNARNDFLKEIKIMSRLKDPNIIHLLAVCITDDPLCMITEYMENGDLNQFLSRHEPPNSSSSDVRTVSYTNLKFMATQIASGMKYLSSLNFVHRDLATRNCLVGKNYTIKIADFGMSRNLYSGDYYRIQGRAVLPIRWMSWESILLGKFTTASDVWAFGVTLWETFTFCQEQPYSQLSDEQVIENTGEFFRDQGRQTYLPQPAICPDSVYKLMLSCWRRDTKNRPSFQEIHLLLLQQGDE

HIPK4 = target: T3, HIPK4 (Homo sapiens, UniProt Q8NE63); conditions: read-out: %Inh HIPK4
T3 sequence (Q8NE63 1-616): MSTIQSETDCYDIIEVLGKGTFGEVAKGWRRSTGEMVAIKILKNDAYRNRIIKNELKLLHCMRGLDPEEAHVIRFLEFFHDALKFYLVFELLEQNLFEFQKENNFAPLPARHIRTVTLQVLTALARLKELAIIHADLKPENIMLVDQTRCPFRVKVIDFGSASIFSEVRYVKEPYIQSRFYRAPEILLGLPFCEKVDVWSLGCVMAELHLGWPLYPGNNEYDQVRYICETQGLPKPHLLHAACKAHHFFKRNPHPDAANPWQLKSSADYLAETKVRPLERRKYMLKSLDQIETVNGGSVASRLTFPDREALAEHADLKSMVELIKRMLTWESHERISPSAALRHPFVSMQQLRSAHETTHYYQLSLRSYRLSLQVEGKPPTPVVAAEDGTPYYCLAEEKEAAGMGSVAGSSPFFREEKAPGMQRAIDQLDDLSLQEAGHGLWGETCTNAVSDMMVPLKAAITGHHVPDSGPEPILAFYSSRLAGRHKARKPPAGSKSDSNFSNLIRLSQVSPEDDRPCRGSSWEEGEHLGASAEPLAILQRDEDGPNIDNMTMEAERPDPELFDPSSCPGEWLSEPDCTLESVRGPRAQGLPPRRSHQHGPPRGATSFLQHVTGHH

[1] = target: JAK1(JH1domain-catalytic) (Homo sapiens, UniProt P23458); conditions: read-out: %Inh JAK1(JH1domain-catalytic)
JAK1(JH1domain-catalytic), sequence (P23458 854-1154 limits assumed): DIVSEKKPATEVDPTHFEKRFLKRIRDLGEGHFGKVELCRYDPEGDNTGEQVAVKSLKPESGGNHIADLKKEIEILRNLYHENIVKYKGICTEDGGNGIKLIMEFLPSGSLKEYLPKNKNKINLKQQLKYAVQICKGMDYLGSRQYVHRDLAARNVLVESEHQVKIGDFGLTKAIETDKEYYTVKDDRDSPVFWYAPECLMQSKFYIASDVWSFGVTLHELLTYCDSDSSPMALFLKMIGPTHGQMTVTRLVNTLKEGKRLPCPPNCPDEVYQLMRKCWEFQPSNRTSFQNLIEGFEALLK

ABL1-nonphosphorylated, sequence (P00519 whole entry): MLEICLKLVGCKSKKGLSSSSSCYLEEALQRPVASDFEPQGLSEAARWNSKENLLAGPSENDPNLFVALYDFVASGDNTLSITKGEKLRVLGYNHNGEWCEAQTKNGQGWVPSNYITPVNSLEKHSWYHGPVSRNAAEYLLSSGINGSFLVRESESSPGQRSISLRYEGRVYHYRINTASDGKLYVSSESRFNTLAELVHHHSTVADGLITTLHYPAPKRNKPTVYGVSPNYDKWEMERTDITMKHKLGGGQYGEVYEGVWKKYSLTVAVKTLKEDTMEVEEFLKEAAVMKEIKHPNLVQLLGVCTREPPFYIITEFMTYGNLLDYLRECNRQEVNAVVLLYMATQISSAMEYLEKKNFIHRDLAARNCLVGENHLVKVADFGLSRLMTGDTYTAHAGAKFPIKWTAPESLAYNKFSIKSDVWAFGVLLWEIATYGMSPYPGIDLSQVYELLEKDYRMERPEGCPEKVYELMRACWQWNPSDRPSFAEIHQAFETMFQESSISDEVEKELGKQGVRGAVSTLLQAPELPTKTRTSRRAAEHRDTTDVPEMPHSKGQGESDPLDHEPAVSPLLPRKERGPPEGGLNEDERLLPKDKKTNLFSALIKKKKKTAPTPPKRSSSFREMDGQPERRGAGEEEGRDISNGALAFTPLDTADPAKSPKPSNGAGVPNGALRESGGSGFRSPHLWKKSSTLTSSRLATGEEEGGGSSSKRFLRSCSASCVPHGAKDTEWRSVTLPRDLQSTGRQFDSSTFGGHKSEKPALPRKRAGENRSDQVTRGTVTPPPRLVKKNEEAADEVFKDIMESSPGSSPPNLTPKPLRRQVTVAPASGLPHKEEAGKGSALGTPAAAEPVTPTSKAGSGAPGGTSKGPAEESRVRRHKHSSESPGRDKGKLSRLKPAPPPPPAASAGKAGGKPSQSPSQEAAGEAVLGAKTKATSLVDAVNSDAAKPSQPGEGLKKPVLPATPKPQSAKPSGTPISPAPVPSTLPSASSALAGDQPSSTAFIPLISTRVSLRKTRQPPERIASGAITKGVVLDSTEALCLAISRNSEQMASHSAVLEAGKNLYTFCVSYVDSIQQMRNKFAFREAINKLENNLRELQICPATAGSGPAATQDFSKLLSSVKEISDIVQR

| Structure (SMILES) | inhibition at 1 µM (ABL1-nonphosphorylated) [%] | inhibition at 1 µM (ASK2) [%] | inhibition at 1 µM (CAMK1) [%] | inhibition at 1 µM (DDR2) [%] | inhibition at 1 µM (HIPK4) [%] | inhibition at 1 µM [1] [%] |
| --- | --- | --- | --- | --- | --- | --- |
| CS(=O)(=O)Cc1ccc(Nc2nccc(-c3c(-c4cccc(NC(=O)C5CCCCC5)c4)nn4ncccc34)n2)cc1 [UNC10225159A] | 8 | 34 | 0 | 54 | 0 | 0 |
| Cn1cc(-c2cnc(N)c3c(-c4ccc5c(c4)CCN5C(=O)Cc4ccccc4)csc23)cn1 [UNC10225012A] | 99.7 | 17 | 0 | 24 | 0 | 0 |
| O=c1cc(N2CCOCC2)nc2n(Cc3cccc(Cl)c3Cl)c(C3CC3)nn12 [UNC10225469A] | 28 | 0 | 0 | 0 | 0 | 9 |
| COc1cccc(OC)c1C(=O)Nc1cccc(-c2nn3ccccc3c2-c2ccnc(Nc3cccc(F)c3)n2)c1 [UNC10225310A] | 28 | 0 | 19 | 57 | 84 | 0 |
| Cc1ccc(NC(=O)Nc2cccc(C(F)(F)F)c2)cc1 [UNC10225187A] | 49 | 0 | 7 | 65 | 0 | 0 |
